One data set relates to bacteria in saliva. The data set is described as follows: Alamar blue test for antimicrobial activity. It is filed as cell-based. Here is the method:
Antimicrobial activity of the formulations is tested to determine whether the chlorhexidine is fully active. The Alamar blue test for antimicrobial activity is conducted according to standard methodology. Bacteria inoculum is prepared by diluting fresh saliva 2× with deionized water, followed by centrifugation at 8000 G/25° C. for 10 min, and decanting the upper clear liquid into a glass jar. The negative control (A) is distilled water. The positive control (B) is 2 wt. % chlorhexidine gluconate solution. The APG control (C) is a 10 wt. % decyl glucoside solution. The two test solutions are: (D) 2 wt. % chlorhexidine gluconate with 10 wt. % decyl glucoside; and (E) 2 wt. % chlorhexidine gluconate with 10 wt. % decyl glucoside solution, with 14% w/w STPP added. Each of the test solutions is combined with saliva in a weight ratio of 1:10 (solution to saliva). The pH of each mixture is adjusted to 5.5-7 by adding citric acid. The mixtures are vortexed for 1 minute, and incubated at 37° C. for 30 minutes. Subsequent addition of 200 μL of Alamar Blue dye immediately produced blue color in all samples and pictures were taken for comparison at different time intervals (0 hours, 24 hours, 48 hours) to show the evolution of color development. A blue color indicates bacterial kill in saliva and no bacterial growth, while a pink color indicates viable bacteria are still present. […]

The nature of data set [1]: Visual observation of formulation clarity and precipitation. It is filed as physicochemical. The note with it: Example 4, other cationic surfactants. The method, then: For the following experiments, a 0.2 wt. % aqueous solution of chlorhexidine gluconate, and a 10.0 wt. % aqueous solution of decyl glucoside (“APG”) are prepared. The pH of the decyl glucoside solution is adjusted to 5.5-7.0 using citric acid. For each formulation, the appropriate amount of the decyl glucoside solution is added to appropriate amounts of the chlorhexidine stock solution. STPP is then added to each formulation, and the mixture is agitated by a bath sonicator until no large solids remained. Additional citric acid is added to adjust the pH to 5.5-7.0. The formulations are then agitated for an additional five minutes, then allowed to equilibrate for 30 minutes before observation and transmittance measurements. For the following experiments, a 0.2 wt. % aqueous solution of chlorhexidine gluconate, and a 2.0 wt. % aqueous solution of CAPB are prepared. STPP is added to the chlorhexidine solution to provide 1.6 wt. % STPP. For each formulation, the appropriate amount of the CAPB solution is added to appropriate amounts of the chlorhexidine/STPP stock solution. The mixture is agitated by a bath sonicator, and then additional citric acid is added to adjust the pH to 6.12-6.19. The formulations are then agitated for an additional five minutes, then allowed to equilibrate for 18 hours before observation. […]

For the molecule `CCCCCCCCCCO[C@@H]1O[C@H](CO)[C@@H](O)[C@H](O)[C@H]1O` [Sample (C) (APG contr), decyl glucoside], the “Alamar Blue color change” value with bacteria in saliva (Example 1 (APG)) is given as “color change from blue to pink after two days”.

Regarding benzalkonium chloride, in data set [1], the “Stabilization effect on CHX/STPP” value is on record as “stabilization effect was not observed”.

With “cocamidopropyl betaine [Sample (C) (CAPB contr)]”, the “Alamar Blue color change” value in the data set on bacteria in saliva (Example 2 (CAPB)) is recorded as “color change from blue to pink after two days”.
